Experimental data taken from ChEMBL document CHEMBL5370585, “Exploration and Biological Evaluation of 1,3-Diamino-7H-pyrrol[3,2-f]quinazoline Derivatives as Dihydrofolate Reductase Inhibitors” (J Med Chem, 2023).
In brackets after ≈: the same amount, converted by molar mass. Activity calls are given as the source filed them. No cut-off for these calls is given here.

Tests used:
Enterococcus faecalis [1] = experiment: Antibacterial activity against Enterococcus faecalis ATCC 29212 incubated for 16 to 18 hrs by CLSI based broth dilution method; type: functional; details: time 16-18 hrs
HCT-116 = experiment: Cytotoxicity against human HCT-116 cells measured after 72 hrs by MTT assay; type: functional, cell-based; details: HCT-116, 72 h
Staphylococcus aureus [2] = experiment: Antibacterial activity against Staphylococcus aureus ATCC 29213 incubated for 16 to 18 hrs by CLSI based broth dilution method; type: functional; details: time 16-18 hrs
Escherichia coli [3] = experiment: Antibacterial activity against Escherichia coli ATCC 25922 incubated for 16 to 18 hrs by CLSI based broth dilution method; type: functional; details: time 16-18 hrs
Staphylococcus aureus [4] = experiment: Antibacterial activity against methicillin-resistant Staphylococcus aureus ATCC 43300 incubated for 16 to 18 hrs by CLSI based broth dilution method; type: functional; details: time 16-18 hrs
HepG2 = experiment: Cytotoxicity against human HepG2 cells measured after 72 hrs by MTT assay; type: functional, cell-based; details: HepG2, 72 h
Acinetobacter baumannii [5] = experiment: Antibacterial activity against Acinetobacter baumannii ATCC 19606 incubated for 16 to 18 hrs by CLSI based broth dilution method; type: functional; details: time 16-18 hrs
[6] = molecular target: T1, Dihydrofolate reductase (Homo sapiens) (UniProt P00374); experiment: Inhibition of human DHFR at 1 uM incubated for 10 mins in presence of NADPH by colorimetry based analysis relative to control
T1 sequence (whole entry): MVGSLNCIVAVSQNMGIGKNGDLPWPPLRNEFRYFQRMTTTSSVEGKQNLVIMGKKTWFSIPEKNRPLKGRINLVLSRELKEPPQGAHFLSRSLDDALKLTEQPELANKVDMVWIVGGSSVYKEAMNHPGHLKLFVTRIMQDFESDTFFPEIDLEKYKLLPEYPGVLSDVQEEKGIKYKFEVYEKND

MCF7 = experiment: Cytotoxicity against human MCF7 cells measured after 72 hrs by MTT assay; type: functional, cell-based; details: MCF7, 72 h
[7] = Toxicity in ICR mouse assessed as median lethal dose administered as single IP dose measured upto 8 days; details: in vivo, time < 8 day
Staphylococcus aureus [8] = experiment: Drug resistance against methicillin-resistant Staphylococcus aureus ATCC 43300 assessed as fold increase in MIC measured after 10 passaging for 24 hrs; type: functional
[9] = test system: Staphylococcus epidermidis; experiment: Antibacterial activity against Staphylococcus epidermidis ATCC 12228 incubated for 16 to 18 hrs by CLSI based broth dilution method; type: functional; details: time 16-18 hrs
HGC-27 = experiment: Cytotoxicity against human HGC-27 cells measured after 72 hrs by MTT assay; type: functional, cell-based; details: HGC-27, 72 h
Escherichia coli [10] = experiment: Antibacterial activity against Escherichia coli ATCC 25922 assessed as inhibition of bacterial growth at upto 8 times MIC measured upto 28 hrs by time kill curve assay; type: functional, organism-based
Staphylococcus aureus [11] = experiment: Antibacterial activity against Staphylococcus aureus ATCC 29213 incubated for 16 to 18 hrs in absence of human plasma by CLSI based broth dilution method; type: functional; details: time 16-18 hrs
Escherichia coli [12] = experiment: Antibacterial activity against Escherichia coli ATCC 25922 incubated for 16 to 18 hrs in absence of human plasma by CLSI based broth dilution method; type: functional; details: time 16-18 hrs
Staphylococcus aureus [13] = experiment: Antibacterial activity against Staphylococcus aureus ATCC 29213 incubated for 16 to 18 hrs in presence of human plasma by CLSI based broth dilution method; type: functional; details: time 16-18 hrs
Escherichia coli [14] = experiment: Antibacterial activity against Escherichia coli ATCC 25922 incubated for 16 to 18 hrs in presence of human plasma by CLSI based broth dilution method; type: functional; details: time 16-18 hrs
Staphylococcus aureus [15] = experiment: Antibacterial activity against methicillin-resistant Staphylococcus aureus ATCC 43300 incubated for 16 to 18 hrs in presence of human plasma by CLSI based broth dilution method; type: functional; details: time 16-18 hrs
Staphylococcus aureus [16] = experiment: Drug resistance against methicillin-resistant Staphylococcus aureus ATCC 43300 assessed as increase in MIC measured after 10 passaging for 24 hrs; type: functional, organism-based
Staphylococcus aureus [17] = experiment: Antibacterial activity against methicillin-resistant Staphylococcus aureus ATCC 43300 assessed as inhibition of bacterial growth at upto 8 times MIC measured upto 28 hrs by time kill curve assay; type: functional, organism-based
[18] = Toxicity in ip dosed ICR mouse assessed as animal death at high dose measured upto 8 days; type: organism-based; details: in vivo, 192 h, time < 8 day
Staphylococcus aureus [19] = experiment: Antibacterial activity against methicillin-resistant Staphylococcus aureus ATCC 43300 incubated for 16 to 18 hrs in absence of human plasma by CLSI based broth dilution method; type: functional; details: time 16-18 hrs
Escherichia coli [20] = experiment: Antibacterial activity against Escherichia coli ECO 15-1 incubated for 16 to 18 hrs by CLSI based broth dilution method; type: functional; details: time 16-18 hrs
Acinetobacter baumannii [21] = experiment: Antibacterial activity against Acinetobacter baumannii ATCC 19606 assessed as reduction in microbial growth incubated for 16 to 18 hrs by CLSI based broth dilution method; type: functional; details: time 16-18 hrs
Acinetobacter baumannii [22] = experiment: Antibacterial activity against Acinetobacter baumannii 20-1 incubated for 16 to 18 hrs by CLSI based broth dilution method; type: functional; details: time 16-18 hrs
Staphylococcus aureus [23] = experiment: Antibacterial activity against methicillin-sensitive Staphylococcus aureus ATCC 29213 incubated for 16 to 18 hrs by CLSI based broth dilution method; type: functional; details: time 16-18 hrs
Pseudomonas aeruginosa = experiment: Antibacterial activity against Pseudomonas aeruginosa ATCC 27853 incubated for 16 to 18 hrs by CLSI based broth dilution method; type: functional; details: time 16-18 hrs
Acinetobacter baumannii [24] = experiment: Antibacterial activity against Acinetobacter baumannii 20-2 incubated for 16 to 18 hrs by CLSI based broth dilution method; type: functional; details: time 16-18 hrs
Staphylococcus aureus [25] = experiment: Antibacterial activity against methicillin-sensitive Staphylococcus aureus 15-1 incubated for 16 to 18 hrs by CLSI based broth dilution method; type: functional; details: time 16-18 hrs
Klebsiella pneumoniae [26] = experiment: Antibacterial activity against Klebsiella pneumoniae ATCC 700603 assessed as reduction in microbial growth incubated for 16 to 18 hrs by CLSI based broth dilution method; type: functional; details: time 16-18 hrs
Klebsiella pneumoniae [27] = experiment: Antibacterial activity against Klebsiella pneumoniae 15-1 assessed as reduction in microbial growth incubated for 16 to 18 hrs by CLSI based broth dilution method; type: functional; details: time 16-18 hrs
Staphylococcus aureus [28] = experiment: Antibacterial activity against methicillin-sensitive Staphylococcus aureus ATCC 25923 incubated for 16 to 18 hrs by CLSI based broth dilution method; type: functional; details: time 16-18 hrs
Enterococcus faecalis [29] = experiment: Antibacterial activity against Enterococcus faecalis EFA19-2 incubated for 16 to 18 hrs by CLSI based broth dilution method; type: functional; details: time 16-18 hrs
Staphylococcus aureus [30] = experiment: Antibacterial activity against methicillin-sensitive Staphylococcus aureus 15-2 incubated for 16 to 18 hrs by CLSI based broth dilution method; type: functional; details: time 16-18 hrs
Escherichia coli [31] = experiment: Antibacterial activity against Escherichia coli ATCC BAA-2340 incubated for 16 to 18 hrs by CLSI based broth dilution method; type: functional; details: time 16-18 hrs
Enterococcus = experiment: Antibacterial activity against Vancomycin-resistant Enterococcus ATCC 51575 incubated for 16 to 18 hrs by CLSI based broth dilution method; type: functional; details: time 16-18 hrs
Staphylococcus aureus [32] = experiment: Antibacterial activity against methicillin-resistant Staphylococcus aureus ATCC 33591 incubated for 16 to 18 hrs by CLSI based broth dilution method; type: functional; details: time 16-18 hrs
Staphylococcus aureus [33] = experiment: Antibacterial activity against vancomycin intermediate Staphylococcus aureus ATCC 700699 incubated for 16 to 18 hrs by CLSI based broth dilution method; type: functional; details: time 16-18 hrs
Staphylococcus aureus [34] = experiment: Antibacterial activity against vancomycin intermediate Staphylococcus aureus ATCC 700788 incubated for 16 to 18 hrs by CLSI based broth dilution method; type: functional; details: time 16-18 hrs
Enterococcus faecalis [35] = experiment: Antibacterial activity against Enterococcus faecalis EFA19-1 incubated for 16 to 18 hrs by CLSI based broth dilution method; type: functional; details: time 16-18 hrs
Staphylococcus aureus [36] = experiment: Antibacterial activity against Methicillin-resistant Staphylococcus aureus ATCC 43300 infected in ip dosed ICR mouse thigh infection model assessed as reduction in bacterial growth measured after 24 hrs post-treatment; type: functional, organism-based; details: dose lower 7.5 mg/kg, dose upper […]

Row | Structure (SMILES) | MIC (Enterococcus faecalis [1]) [µg/mL] | IC50 (HCT-116) [nM] | MIC (Staphylococcus aureus [2]) [µg/mL] | MIC (Escherichia coli [3]) [µg/mL] | MIC (Staphylococcus aureus [4]) [µg/mL] | IC50 (HepG2) [nM] | MIC (Acinetobacter baumannii [5]) [µg/mL] | inhibition [6] [%] | IC50 (MCF7) [nM] | LD50 at 192 h [7] [mg/kg] | MIC [9] [µg/mL] | IC50 (HGC-27) [nM] | MIC (Staphylococcus aureus [11]) [µg/mL] | MIC (Escherichia coli [12]) [µg/mL] | MIC (Escherichia coli [20]) [µg/mL] | MIC (Acinetobacter baumannii [21]) [µg/mL] | MIC (Staphylococcus aureus [23]) [µg/mL] | MIC (Acinetobacter baumannii [24]) [µg/mL] | MIC (Staphylococcus aureus [25]) [µg/mL] | MIC (Staphylococcus aureus [28]) [µg/mL] | other results
1 | Nc1nc(N)c2c(ccc3c2ccn3Cc2ccc(-c3ccccc3)cc2)n1 | 0.25 (≈ 0.684 µM) | 32 | 1 (≈ 2.74 µM) | > 128 | 0.5 (≈ 1.37 µM) | 530 | > 32 | 54.8 | 580 | 154 | ≤ 0.004 | 85 |  |  |  |  |  |  |  |  | fold change (FC) (Staphylococcus aureus [8]): 8
2 | Nc1nc(N)c2c(ccc3c2ccn3Cc2cccc3scnc23)n1 | ≤ 0.004 | 32 | 0.008 (≈ 0.0231 µM) | 0.03 (≈ 0.0866 µM) | 0.004 (≈ 0.0115 µM) | 170 | 0.5 (≈ 1.44 µM) |  | 110 | 88.9 | ≤ 0.004 | 11 | 0.008 (≈ 0.0231 µM) | 0.03 (≈ 0.0866 µM) |  |  |  |  |  |  | Activity (Escherichia coli [10]): Active; MIC (Staphylococcus aureus [13]): 0.25 µg/mL; MIC (Escherichia coli [14]): 0.25 µg/mL; MIC (Staphylococcus aureus [15]): 0.25 µg/mL; Activity (Staphylococcus aureus [16]): Active; Activity (Staphylococcus aureus [17]): Active; Activity [18]: Toxic; MIC (Staphylococcus aureus [19]): ≤ 0.004 µg/mL
3 | Nc1nc(N)c2c(ccc3c2ccn3Cc2ccc3ccccc3n2)n1 | 0.06 (≈ 0.176 µM) | > 10000 | 0.06 (≈ 0.176 µM) | 0.5 (≈ 1.47 µM) | 0.03 (≈ 0.0881 µM) | 270 | 4 (≈ 11.8 µM) | 74.1 | 830 |  | 0.25 (≈ 0.734 µM) | 210 |  |  | > 64 | 4 | 0.06 (≈ 0.176 µM) | 2 (≈ 5.88 µM) | ≤ 0.03 | 0.125 (≈ 0.367 µM) | MIC (Acinetobacter baumannii [22]): > 64 µg/mL; MIC (Pseudomonas aeruginosa): > 64 µg/mL; MIC (Klebsiella pneumoniae [26]): 2 µg/mL; MIC (Klebsiella pneumoniae [27]): 4 µg/mL
4 | C[C@H]1COc2c(N3CCN(C)CC3)c(F)cc3c(=O)c(C(=O)O)cn1c23 [LEVOFLOXACIN ANHYDROUS] |  |  |  | ≤ 0.03 | 0.25 (≈ 0.692 µM) |  |  |  |  |  |  |  |  |  | 8 (≈ 22.1 µM) | 0.25 | 0.25 (≈ 0.692 µM) | ≤ 0.03 | 16 (≈ 44.3 µM) | 0.25 (≈ 0.692 µM) | MIC (Enterococcus faecalis [29]): 2 µg/mL (≈ 5.53 µM); MIC (Staphylococcus aureus [30]): 64 µg/mL (≈ 177 µM); MIC (Escherichia coli [31]): 32 µg/mL (≈ 88.6 µM); MIC (Enterococcus): 1 µg/mL (≈ 2.77 µM); MIC (Staphylococcus aureus [32]): 0.25 µg/mL (≈ 0.692 µM); MIC (Staphylococcus aureus [33]): 64 µg/mL (≈ 177 µM); MIC (Staphylococcus aureus [34]): 32 µg/mL (≈ 88.6 µM); MIC (Enterococcus faecalis [35]): 1 µg/mL (≈ 2.77 µM)
5 | COc1cc(Cc2cnc(N)nc2N)cc(OC)c1OC [TRIMETHOPRIM] | 0.5 (≈ 1.72 µM) |  | 1 (≈ 3.44 µM) | 0.5 (≈ 1.72 µM) | 0.5 (≈ 1.72 µM) |  | 16 (≈ 55.1 µM) |  |  | > 800 | ≤ 0.004 |  | 1 (≈ 3.44 µM) | 0.5 (≈ 1.72 µM) | > 64 | 16 | 1 (≈ 3.44 µM) | 16 (≈ 55.1 µM) | 0.5 (≈ 1.72 µM) | 1 (≈ 3.44 µM) | MIC (Enterococcus faecalis [29]): 0.5 µg/mL (≈ 1.72 µM); MIC (Acinetobacter baumannii [22]): > 64 µg/mL; Activity (Staphylococcus aureus [36]): Active; MIC (Staphylococcus aureus [30]): 0.25 µg/mL (≈ 0.861 µM); MIC (Escherichia coli [31]): 64 µg/mL (≈ 220 µM); MIC (Pseudomonas aeruginosa): > 64 µg/mL; MIC (Enterococcus): ≤ 0.03 µg/mL; MIC (Staphylococcus aureus [13]): 1 µg/mL; MIC (Escherichia coli [14]): 0.5 µg/mL; MIC (Staphylococcus aureus [32]): 1 µg/mL (≈ 3.44 µM); MIC (Staphylococcus aureus [33]): 1 µg/mL (≈ 3.44 µM); MIC (Staphylococcus aureus [34]): 0.5 µg/mL (≈ 1.72 µM); MIC (Enterococcus faecalis [35]): 0.25 µg/mL (≈ 0.861 µM); MIC (Klebsiella pneumoniae [26]): 4 µg/mL; MIC (Staphylococcus aureus [15]): 0.5 µg/mL; MIC (Staphylococcus aureus [19]): 0.5 µg/mL (≈ 1.72 µM); MIC (Klebsiella pneumoniae [27]): 8 µg/mL
